{
  "source": "patent US20150018299A1",
  "about": "“TREATMENT OF LIVER CONDITIONS” (CAN-FITE BIOPHARMA LTD., priority 2012, published 2015)",
  "key": {"[1]": {"system": "patients with hepatocellular carcinoma (HCC)", "assay": "Phase 1-2 study of oral CF102: liver function parameters over 6 months", "assay_type": "in vivo, human", "conditions": "serum, over a 6 months period", "excerpt": "The trial employed a conventional “three plus three” design. […] At the first stage nine patients were enrolled for the dose escalation phase and then additional nine were enrolled for the dose confirmation phase. Furthermore, nine patients have undergone intra-subject dose escalation per protocol. Subjects returned for a follow-up visit 28 days after completion of the last dose of study drug."}, "[2]": {"conditions": "human, in vivo", "excerpt": "The number and percentage of subjects who experienced one or more AEs were summarized by dose level group, relationship to study drug, and severity. AEs were coded using Medical Dictionary for Regulatory Activities (MedDRA) terminology. Clinical laboratory parameters were summarized using descriptive statistics, by post-dosing shifts relative to baseline, and data listings of clinically significant abnormalities. Vital signs and ECG data were summarized by changes from baseline values at each dose level using descriptive statistics. Pharmacokinetic parameters, including AUC (0-8 h), Cmax, Cmin, and Tmax was estimated. Comparisons across dose levels were made to assess proportionality. Overall survival was calculated using the Kaplan-Meier method."}, "[3]": {"system": "patients with advanced hepatocellular carcinoma (HCC)", "assay": "Phase 1-2 dose-escalation study of oral CF102: overall survival and clinical activity", "assay_type": "in vivo, human", "conditions": "for Survival from start of CF102: individual subjects", "excerpt": "All patients were over the age of 18 with incurable advanced, refractory, or metastatic hepatocellular carcinoma (HCC), documented by cytology and/or histology for patients without underlying cirrhosis or according to the American Association for the Study of Liver Diseases Practice Guideline algorithm for patients with underlying cirrhosis. All patients had measurable disease, according to Response Evaluation Criteria in Solid Tumors (RECIST); […] The trial employed a conventional “three plus three” design. […] At the first stage nine patients were enrolled for the dose escalation phase and then additional nine were enrolled for the dose confirmation phase. Furthermore, nine patients have undergone intra-subject dose escalation per protocol. Subjects returned for a follow-up visit 28 days after completion of the last dose of study drug. […] Safety data analysis was conducted on all subjects who received at least one dose of CF102. The number and percentage of subjects who experienced one or more AEs were summarized by dose level group, relationship to study drug, and severity. AEs were coded using Medical Dictionary for Regulatory Activities (MedDRA) terminology. Clinical laboratory parameters were summarized using descriptive statistics, by post-dosing shifts relative to baseline, and data listings of clinically significant abnormalities. Vital signs and ECG data were summarized by changes from baseline values at each dose level using descriptive statistics. Pharmacokinetic parameters, including AUC (0-8 h), Cmax, Cmin, and Tmax was estimated. Comparisons across dose levels were made to assess proportionality. Overall survival was calculated using the Kaplan-Meier method."}},
  "note": "Values joined by “and” are separate entries in the source; they are usually repeats but may differ in a detail not shown here. Identical values can stand only once.",
  "data": [
    {"smiles": "CNC(=O)[C@H]1O[C@@H](n2cnc3c(NCc4cccc(I)c4)nc(Cl)nc32)[C@H](O)[C@@H]1O", "note": "[CF102, 2-Chloro-N^6-(3-iodobenzyl)-adenosine-5′-N-methyluronamide]", "values": [
      {"measurement": "Liver function parameters: ALT, AST, albumin, bilirubin, prothrombin time, ALK phosphatase, α-fetoprotein", "setting": "[1]", "value": "remained stable"},
      {"measurement": "Plasma levels", "setting": "[2]", "value": "> 0.66", "unit": "nM"},
      {"measurement": "Overall survival, range", "setting": "[3]; 12 sorafenib failures", "value": "3.5-13.2 months"},
      {"measurement": "Median overall survival (OS)", "setting": "[3]; 12 sorafenib failures, CF102 as second line therapy", "value": "7 months and 7.0 months"},
      {"measurement": "Median overall survival (OS)", "setting": "[3]; all 18 subjects", "value": "7.82 months and 7.8 months"},
      {"measurement": "Overall survival, range", "setting": "[3]; all 18 subjects", "value": "3.5-27.3 months"},
      {"measurement": "Median overall survival (OS)", "setting": "[3]; five Child-Pugh B patients", "value": 8.1, "unit": "months"},
      {"measurement": "Overall survival, range", "setting": "[3]; five Child-Pugh B patients", "value": "7.0-13.2 months"},
      {"measurement": "Survival from start of CF102", "setting": "[3]; starting dose 1 mg BID oral", "value": "7.1 months and 5.6 months and 13.2** months and 7.0 months and 8.2 months and 27.3* months"},
      {"measurement": "Survival from start of CF102", "setting": "[3]; starting dose 5 mg BID oral", "value": "4.1 months and 7.1 months and 10.6 months and 10.7 months and 3.5 months and 4.2 months"},
      {"measurement": "Survival from start of CF102", "setting": "[3]; starting dose 25 mg BID oral", "value": "8.3 months and 8.1 months and 7.6 months and 7.0 months and 12.6 months and 8.4 months"},
      {"measurement": "Period of Stable Disease (SD) by RECIST criteria", "setting": "[3]; one subject", "value": 10, "unit": "months"},
      {"measurement": "Time receiving CF102", "setting": "[3]; one subject, continuing on drug", "value": "≥ 41", "unit": "months"}
    ]}
  ]
}
